According to PubChem BioAssay AID504426 (Johns Hopkins Ion Channel Center, 2011):
Active and inactive are the calls of the source.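 The calls were made as follows: active = channel current reduced at one or more tested doses, with a fitted dose-response curve; inactive = no curve fitted, or no current reduction at any dose.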

Target: Voltage-dependent T-type calcium channel subunit alpha-1H (Homo sapiens) (UniProt O95180)
Assay: Cav3.2 T-type calcium channel inhibitors, dose response, mechanism study, automated patch clamp, HEK293 cells (AID 504426)
Conditions: Cav3.2-HEK293, automated patch clamp peak current; for current change, negative = inhibition: at 30 µM (top of the series)

Chain of Voltage-dependent T-type calcium channel subunit alpha-1H (Homo sapiens) (O95180 whole entry, looked up): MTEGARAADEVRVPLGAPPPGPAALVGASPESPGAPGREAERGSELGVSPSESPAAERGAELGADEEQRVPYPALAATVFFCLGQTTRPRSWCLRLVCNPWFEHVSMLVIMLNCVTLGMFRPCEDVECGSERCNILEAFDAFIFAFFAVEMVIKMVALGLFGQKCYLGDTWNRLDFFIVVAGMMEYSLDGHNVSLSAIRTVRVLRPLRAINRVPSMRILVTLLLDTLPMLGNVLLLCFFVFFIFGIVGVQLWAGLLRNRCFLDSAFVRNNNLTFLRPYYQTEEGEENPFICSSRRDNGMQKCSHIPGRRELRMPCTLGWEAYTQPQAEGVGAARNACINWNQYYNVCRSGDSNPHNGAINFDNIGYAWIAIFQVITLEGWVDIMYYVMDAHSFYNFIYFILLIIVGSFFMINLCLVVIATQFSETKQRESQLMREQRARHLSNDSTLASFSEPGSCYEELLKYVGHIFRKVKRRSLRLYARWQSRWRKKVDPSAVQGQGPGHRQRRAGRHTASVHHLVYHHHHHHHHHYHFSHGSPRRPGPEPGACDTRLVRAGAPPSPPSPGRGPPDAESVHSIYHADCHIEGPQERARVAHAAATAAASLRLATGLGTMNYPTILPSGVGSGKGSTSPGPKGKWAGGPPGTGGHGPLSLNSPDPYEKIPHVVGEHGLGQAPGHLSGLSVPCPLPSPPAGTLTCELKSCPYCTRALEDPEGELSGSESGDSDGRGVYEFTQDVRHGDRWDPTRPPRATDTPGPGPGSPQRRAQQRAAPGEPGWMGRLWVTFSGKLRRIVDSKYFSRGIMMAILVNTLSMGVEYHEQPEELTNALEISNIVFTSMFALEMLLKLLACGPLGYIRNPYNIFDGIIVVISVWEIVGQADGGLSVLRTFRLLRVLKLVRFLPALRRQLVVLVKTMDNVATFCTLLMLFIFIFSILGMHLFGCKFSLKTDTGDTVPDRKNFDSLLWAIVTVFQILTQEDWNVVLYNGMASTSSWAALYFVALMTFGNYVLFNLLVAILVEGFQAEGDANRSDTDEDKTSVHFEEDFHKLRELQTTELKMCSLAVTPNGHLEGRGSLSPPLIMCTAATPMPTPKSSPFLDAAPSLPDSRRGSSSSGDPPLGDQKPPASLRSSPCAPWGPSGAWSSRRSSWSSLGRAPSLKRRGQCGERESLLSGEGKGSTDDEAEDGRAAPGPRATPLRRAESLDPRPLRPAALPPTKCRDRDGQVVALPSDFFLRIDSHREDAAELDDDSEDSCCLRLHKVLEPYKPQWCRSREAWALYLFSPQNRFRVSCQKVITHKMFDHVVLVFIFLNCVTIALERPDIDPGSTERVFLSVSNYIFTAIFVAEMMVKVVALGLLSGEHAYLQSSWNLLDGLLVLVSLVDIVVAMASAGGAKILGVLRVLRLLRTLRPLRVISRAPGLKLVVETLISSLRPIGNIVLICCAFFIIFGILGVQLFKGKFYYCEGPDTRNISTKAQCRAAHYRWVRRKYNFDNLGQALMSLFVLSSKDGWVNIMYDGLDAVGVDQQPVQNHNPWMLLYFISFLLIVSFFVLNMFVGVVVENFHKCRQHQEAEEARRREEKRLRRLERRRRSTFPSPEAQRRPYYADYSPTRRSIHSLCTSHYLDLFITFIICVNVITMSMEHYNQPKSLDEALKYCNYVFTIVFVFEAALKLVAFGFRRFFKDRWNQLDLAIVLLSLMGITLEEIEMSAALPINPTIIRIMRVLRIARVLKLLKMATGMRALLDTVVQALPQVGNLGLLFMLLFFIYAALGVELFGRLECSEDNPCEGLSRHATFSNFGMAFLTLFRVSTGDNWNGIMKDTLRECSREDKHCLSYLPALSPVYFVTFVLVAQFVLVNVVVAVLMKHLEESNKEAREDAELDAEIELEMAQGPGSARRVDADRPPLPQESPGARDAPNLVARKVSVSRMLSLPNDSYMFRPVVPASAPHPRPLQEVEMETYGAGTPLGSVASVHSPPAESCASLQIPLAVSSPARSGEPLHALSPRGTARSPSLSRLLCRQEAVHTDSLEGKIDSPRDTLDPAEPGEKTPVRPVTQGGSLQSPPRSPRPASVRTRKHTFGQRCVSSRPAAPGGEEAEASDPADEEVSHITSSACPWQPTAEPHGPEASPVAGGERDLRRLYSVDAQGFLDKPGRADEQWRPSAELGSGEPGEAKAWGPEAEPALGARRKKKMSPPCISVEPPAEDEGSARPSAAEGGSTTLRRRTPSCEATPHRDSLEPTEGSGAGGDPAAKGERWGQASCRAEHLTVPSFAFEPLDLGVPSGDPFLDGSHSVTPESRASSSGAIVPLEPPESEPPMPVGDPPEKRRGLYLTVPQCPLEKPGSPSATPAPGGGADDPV

| IC50 [µM] | SMILES | current change, negative = inhibition |
| --- | --- | --- |
| 0.31 | CC(C)(C)CCN1C[C@@H]2C(CNC(=O)c3cc(Cl)cc(Cl)c3)[C@@H]2C1 (some centres undefined) | – |
| – | Cc1ccc(-c2nnc(NC(=O)COc3ccc(F)cc3Cl)o2)cc1C | inactive |
| – | CC(C)(C)Cc1nnc(NC(=O)COc2ccc(Cl)cc2Cl)o1 | inactive |
| 13.5 | O=C(COc1ccc(F)cc1Cl)Nc1nnc(-c2ccc(F)c(F)c2)o1 | – |
